Like-named read-outs stand apart in the source and are kept apart here. Where a SMILES comes first, the peptide text is derived from it. Bridges are numbered along the chain shown (N, C = ends). Primed or numbered codes have the meaning given here. Where no end group is shown, it is not given here. Side-chain parts run from the residue outwards. [ ]: non-standard residue; d: D form. The star is where a group is joined. ξ: configuration not given here. thiocholesterol = thiocholesterol moiety attached via the PEG4 linker to the lysine epsilon side chain, CC(C)CCC[C@@H](C)[C@H]1CC[C@H]2[C@@H]3CC=C4C[C@@H](S*)CC[C@]4(C)[C@H]3CC[C@]12C; Acetyl(2-S-cholesteryl) = CC(C)CCC[C@@H](C)[C@H]1CC[C@H]2[C@@H]3CC=C4C[C@@H](SCC(=O)*)CC[C@]4(C)[C@H]3CC[C@]12C; Acetyl(2-S-3ξ-cholesteryl) = CC(C)CCC[C@@H](C)[C@H]1CC[C@H]2[C@@H]3CC=C4CC(SCC(=O)*)CC[C@]4(C)[C@H]3CC[C@]12C; PEG20 = NCCOCCOCCOCCOCCOCCOCCOCCOCCOCCOCCOCCOCCOCCOCCOCCOCCOCCOCCOCCOCCC(=O)O; PEG16 = NCCOCCOCCOCCOCCOCCOCCOCCOCCOCCOCCOCCOCCOCCOCCOCCOCCC(=O)O; PEG4′ = 4x polyethylene glycol linker; R8 = C=CCCCCCC[C@@](C)(N)C(=O)O; PEG4 = NCCOCCOCCOCCOCCC(=O)O; S5 = C=CCCC[C@](C)(N)C(=O)O
Key:
[1] = tested on: live human Respiratory Syncytial Virus with Green Fluorescent Protein (RSV-GFP1); assay type: cell-based; settings: for antiviral activity in the GFP-RSV live virus assay (staple and PEG scanning): dose of 2 μM, RSV-GFP in A549 cells after 48 hours (FIG. 15); for improvement in anti-viral activity compared to the singly stapled RSV HR2 peptide of SEQ ID NO: 4: versus single staple alone with an additional 6 HR2 amino acids at the C-terminus
Method: Antiviral Efficacy Assays: The efficiency of the peptide-cholesterol conjugates of the invention in preventing and treating infection of live human Respiratory Syncytial Virus with Green Fluorescent Protein (RSV-GFP1) are evaluated in monolayer cell cultures. A549 cells plated in 384-well format are treated for 30 min with a serial dilution of stapled peptides (e.g. 1-5 […] or a fixed dose, e.g. […]), performed in quadruplicate, followed by addition of GFP-RSV live virus assay (0.75-1.25 μL of virus per well) and incubation for 48-72 hours. Infected cells are then washed with PBS. Hoechst 33342 (cell permeable nuclear dye) and DRAQ7 (cell impermeable nuclear dye) are added and the plate imaged on a Molecular Devices ImageXpress Micro Confocal Laser at 4× magnification. GFP (+) cells are counted and total GFP(+) cells or percent GFP(+) cells are plotted using Prism software (Graphpad). Cytotoxicity is determined by the ratio of DRAQ7 (+) Hoechst 33342 (+) to DRAQ7 (−) Hoechst 33342 (+) cells.

[2] = Solubility of stapled lipopeptides in buffer (FIG. 18); assay type: physicochemical; settings: 15 mg/mL in 15% DMSO, PBS pH 7.4
Method: Buffer conditions are 15 mg/mL in 15% DMSO, PBS pH 7.4.

[3] = pI of stapled lipopeptides; assay type: physicochemical
[4] = GFP-RSV live virus, A549 cells, read-out at 48 hours (FIGS. 13, 16, 17), read-out: IC50, antiviral activity in live RSV virus assay

Molecule | antiviral activity in the GFP-RSV live virus assay (staple and PEG scanning) [1] | IC50 [1, 4] [nM] | improvement in anti-viral activity compared to the singly stapled RSV HR2 peptide of SEQ ID NO: 4 [1] | also measured
FDASISQVN8KINQSLXFIRKSDELLHNV* (FDASISQVNXKINQSLXFIRKSDELLHNVK; not fully specified; Lys(epsilon-(PEG)4-thiocholesterol); non-natural residues 8, X; SITE 10 (R)-alpha-(7'-octenyl)alanine; SITE 17 (S)-alpha-(4'-pentenyl)alanine; SITE 30 Residue side chain modified at the epsilon carbon with 4x polyethylene glycol attached to thiocholesterol) [SEQ ID NO: 14] | potent activity |  |  | 
CC[C@H](C)[C@H](NC(=O)[C@H](CO)NC(=O)[C@H](C)NC(=O)[C@H](CC(=O)O)NC(=O)[C@H](Cc1ccccc1)NC(C)=O)C(=O)N[C@@H](CO)C(=O)N[C@@H](CCC(N)=O)C(=O)N[C@H](C(=O)N[C@@H](CC(N)=O)C(=O)N[C@@H](CCC(=O)O)C(=O)N[C@@H](CCCCN)C(=O)N[C@H](C(=O)N[C@@H](CC(N)=O)C(=O)N[C@@H](CCC(N)=O)C(=O)N[C@@H](CO)C(=O)N[C@@H](CC(C)C)C(=O)N[C@]1(C)CCCCCCC=CCCC[C@@](C)(C(=O)N[C@@H](CC(C)C)C(=O)N[C@@H](CC(C)C)C(=O)N[C@@H](Cc2c[nH]cn2)C(=O)N[C@@H](CC(N)=O)C(=O)N[C@H](C(=O)N[C@@H](CCCCNC(=O)CCOCCOCCOCCOCCOCCOCCOCCOCCOCCOCCOCCOCCOCCOCCOCCOCCNC(=O)CS[C@H]2CC[C@@]3(C)C(=CC[C@H]4[C@@H]5CC[C@H]([C@H](C)CCCC(C)C)[C@@]5(C)CC[C@@H]43)C2)C(N)=O)C(C)C)NC(=O)[C@H](CC(=O)O)NC(=O)[C@H](CO)NC(=O)[C@H](CCCCN)NC(=O)[C@H](CCCNC(=N)N)NC(=O)[C@H]([C@@H](C)CC)NC(=O)[C@H](Cc2ccccc2)NC1=O)[C@@H](C)CC)C(C)C [PEG16-thiochol SEQ ID NO: 21] (Ac-FDASISQVNEKINQSL[R8]FIRKSD[S5]LLHNVK([PEG16-Acetyl(2-S-cholesteryl)])-NH2; staple 17-24) |  | 18 |  | 
CC[C@H](C)[C@H](NC(=O)[C@H](CO)NC(=O)[C@H](C)NC(=O)[C@H](CC(=O)O)NC(=O)[C@H](Cc1ccccc1)NC(C)=O)C(=O)N[C@@H](CO)C(=O)N[C@@H](CCC(N)=O)C(=O)N[C@H](C(=O)N[C@@H](CC(N)=O)C(=O)N[C@@H](CCC(=O)O)C(=O)N[C@@H](CCCCN)C(=O)N[C@H](C(=O)N[C@@H](CC(N)=O)C(=O)N[C@@H](CCC(N)=O)C(=O)N[C@@H](CO)C(=O)N[C@@H](CC(C)C)C(=O)N[C@]1(C)CCCCCCC=CCCC[C@@](C)(C(=O)N[C@@H](CC(C)C)C(=O)N[C@@H](CC(C)C)C(=O)N[C@@H](Cc2c[nH]cn2)C(=O)N[C@@H](CC(N)=O)C(=O)N[C@H](C(=O)N[C@@H](CCCCNC(=O)CCOCCOCCOCCOCCNC(=O)CSC2CC[C@@]3(C)C(=CC[C@H]4[C@@H]5CC[C@H]([C@H](C)CCCC(C)C)[C@@]5(C)CC[C@@H]43)C2)C(N)=O)C(C)C)NC(=O)[C@H](CC(=O)O)NC(=O)[C@H](CO)NC(=O)[C@H](CCCCN)NC(=O)[C@H](CCCNC(=N)N)NC(=O)[C@H]([C@@H](C)CC)NC(=O)[C@H](Cc2ccccc2)NC1=O)[C@@H](C)CC)C(C)C (stereo partly drawn) [SEQ ID NO: 21, FDASISQVNEKINQSL8FIRKSDXLLHNV*] (Ac-FDASISQVNEKINQSL[R8]FIRKSD[S5]LLHNVK([PEG4-Acetyl(2-S-3ξ-cholesteryl)])-NH2; staple 17-24) |  |  |  | solubility [2]: visible pellet; solubility ([2]; listed as SEQ ID NO:21): Poor solubility
CC[C@H](C)[C@H](NC(=O)[C@H](CO)NC(=O)[C@H](C)NC(=O)[C@H](CC(=O)O)NC(=O)[C@H](Cc1ccccc1)NC(C)=O)C(=O)N[C@@H](CO)C(=O)N[C@@H](CCC(N)=O)C(=O)N[C@H](C(=O)N[C@@H](CC(N)=O)C(=O)N[C@@H](CCC(=O)O)C(=O)N[C@@H](CCCCN)C(=O)N[C@H](C(=O)N[C@@H](CC(N)=O)C(=O)N[C@@H](CCC(N)=O)C(=O)N[C@@H](CO)C(=O)N[C@@H](CC(C)C)C(=O)N[C@]1(C)CCCCCCC=CCCC[C@@](C)(C(=O)N[C@@H](CC(C)C)C(=O)N[C@@H](CC(C)C)C(=O)N[C@@H](Cc2c[nH]cn2)C(=O)N[C@@H](CC(N)=O)C(=O)N[C@H](C(=O)N[C@@H](CCCCNC(=O)CCOCCOCCOCCOCCOCCOCCOCCOCCOCCOCCOCCOCCOCCOCCOCCOCCOCCOCCOCCOCCNC(=O)CS[C@H]2CC[C@@]3(C)C(=CC[C@H]4[C@@H]5CC[C@H]([C@H](C)CCCC(C)C)[C@@]5(C)CC[C@@H]43)C2)C(N)=O)C(C)C)NC(=O)[C@H](CC(=O)O)NC(=O)[C@H](CO)NC(=O)[C@H](CCCCN)NC(=O)[C@H](CCCNC(=N)N)NC(=O)[C@H]([C@@H](C)CC)NC(=O)[C@H](Cc2ccccc2)NC1=O)[C@@H](C)CC)C(C)C [PEG20-thichol SEQ ID NO: 21] (Ac-FDASISQVNEKINQSL[R8]FIRKSD[S5]LLHNVK([PEG20-Acetyl(2-S-cholesteryl)])-NH2; staple 17-24) |  | 8.2 |  | 
SDEFDASISQVNEKINQSL8FIRKSDXLLHNV* (SDEFDASISQVNEKINQSL[R8]FIRKSD[S5]LLHNV; staple 20-27; also: C-terminal linker-lipid (*), exact composition not fixed) [SEQ ID NO: 281] |  |  |  | solubility [2]: fully soluble; solubility ([2]; listed as SEQ ID NO:21 with three native N-terminal residues “SDE”): complete solubility; pI [3]: 4.7
8DASISQXNEKINQSLAFIRKSDELLHNV* ([R8]DASISQ[S5]NEKINQSLAFIRKSDELLHNVK([PEG4′-thiocholesterol]); staple 1-8) [SEQ ID NO: 6, * =Lys(epsilon-(PEG)4-thiocholesterol)] | potent activity |  |  | 
FDASISQVNEKINQSLAFI8KSDELLXNV* (FDASISQVNEKINQSLAFI[R8]KSDELL[S5]NVK([PEG4′-thiocholesterol]); staple 20-27 (inferred)) [SEQ ID NO: 24, * =Lys(epsilon-(PEG)4-thiocholesterol)] | potent activity |  |  | 
PEG20-thiochol SEQ IQ NO: 5: SEQ ID NO:51 with PEG(n)-thiocholesterol linked via a C-terminal lysine, n is 20 (FDXSISQVNXKINQSLAFIRKSDELLHNVK; not fully specified; C-terminal Lys-PEG20-thiocholesterol; SITE 3 (R)-alpha-(7'-octenyl)alanine; SITE 10 (S)-alpha-(4'-pentenyl)alanine; SITE 30 Residue attached to 20x polyethylene glycol thiocholesterol) |  | 60 | greater than two orders of magnitude | 
PEG16-thiochol SEQ IQ NO: 5: SEQ ID NO:51 with PEG(n)-thiocholesterol linked via a C-terminal lysine, n is 16 (FDXSISQVNXKINQSLAFIRKSDELLHNVK; not fully specified; C-terminal Lys-PEG16-thiocholesterol; SITE 3 (R)-alpha-(7'-octenyl)alanine; SITE 10 (S)-alpha-(4'-pentenyl)alanine; SITE 30 Residue attached to 16x polyethylene glycol thiocholesterol) |  | 49 | greater than two orders of magnitude | 
CC[C@H](C)[C@H](NC(=O)[C@H](Cc1ccccc1)NC(=O)[C@H](C)NC(=O)[C@H](CC(C)C)NC(=O)[C@H](CO)NC(=O)[C@H](CCC(N)=O)NC(=O)[C@H](CC(N)=O)NC(=O)[C@@H](NC(=O)[C@H](CCCCN)NC(=O)[C@]1(C)CCCC=CCCCCCC[C@@](C)(NC(=O)[C@H](CC(=O)O)NC(=O)[C@H](Cc2ccccc2)NC(C)=O)C(=O)N[C@@H](CO)C(=O)N[C@@H]([C@@H](C)CC)C(=O)N[C@@H](CO)C(=O)N[C@@H](CCC(N)=O)C(=O)N[C@@H](C(C)C)C(=O)N[C@@H](CC(N)=O)C(=O)N1)[C@@H](C)CC)C(=O)N[C@@H](CCCNC(=N)N)C(=O)N[C@@H](CCCCN)C(=O)N[C@@H](CO)C(=O)N[C@@H](CC(=O)O)C(=O)N[C@@H](CCC(=O)O)C(=O)N[C@@H](CC(C)C)C(=O)N[C@@H](CC(C)C)C(=O)N[C@@H](Cc1c[nH]cn1)C(=O)N[C@@H](CC(N)=O)C(=O)N[C@H](C(=O)N[C@@H](CCCCNC(=O)CCOCCOCCOCCOCCNC(=O)CS[C@H]1CC[C@@]2(C)C(=CC[C@H]3[C@@H]4CC[C@H]([C@H](C)CCCC(C)C)[C@@]4(C)CC[C@@H]32)C1)C(N)=O)C(C)C [SEQ ID NO: 5, FD8SISQVNXKINQSLAFIRKSDELLHNV*] (Ac-FD[R8]SISQVN[S5]KINQSLAFIRKSDELLHNVK([PEG4-Acetyl(2-S-cholesteryl)])-NH2; staple 3-10) | potent activity | 130 | an order of magnitude | IC50 ([1]; live RSV virus (FIG. 13), read-out: IC50, infectivity assay using live RSV virus): 130 nM

Reference: US20260041753A1, “RESPIRATORY SYNCYTIAL VIRUS SURFACE GL[…], CONJUGATES, AND USES THEREOF” (Dana-Farber Cancer Institute, Inc., priority 2023, published 2026)
